The values that follow come from patent US10787441B2, “Hepatitis C virus inhibitors” (priority 2016, dated 2020).

pIC50: −log10 of the molar value. Read-outs that look alike come from different tables or passages of the source. A value given as a limit tells only on which side of the number the result lay.

Common to all, as to type: cell-based, Hepatitis C virus
Test [1] relates to HCV 1aY93H mutant replicon. As to the kind of experiment: HCV replicon assay, genotype 1a Y93H mutant. The following applies: for IC50: Hepatitis C virus, read-out: 1aY93H IC50 (nM), HCV genotype 1a, Y93H mutant. Here is the method: General procedure: The luciferase replicon transient transfection assay measures the ability of a test compound to inhibit the replication of a transiently-transfected HCV luciferase-bearing wild-type or mutant replicon in cured human hepatoma cells (Huh7.5). The inhibition of HCV replication was measured by quantification of luciferase protein expression. This assay has been validated using a panel of genotype 1a and 1b replicons bearing mutations known to be associated with resistance to BMS-790052. Briefly, subconfluent Huh7.5 cells were electroporated with 10 μg of wild-type or mutant luciferase-bearing HCV replicon RNA. The cells were then seeded in 96-well opaque white plates at 3×10^4 cells/well in 150 μL/well and incubated for 4 hrs at 37° C./5% CO2. Ten 1:5 serial dilutions of each test compound were made in media (DMEM containing glucose, L-glutamine and sodium pyruvate, 10% fetal bovine serum, 100 IU/mL penicillin, 100 μg/mL streptomycin, 2 mM GlutaMAX, and 1×MEM non-essential amino acids (Mediatech, Inc. and Invitrogen Corp.)) at concentrations that were 4× higher than the final concentrations to be tested and 50 μL/well was added to the transfected cells. Untreated, mock-transfected cells served as a negative control of luciferase expression. The plates were incubated at 37° C./5% CO2 for 4 days whereupon the media was removed and 50 μL of ONE-glo luciferase substrate (Promega) was added to each well. The plates were agitated on a rotating platform at room temperature for 3 min and read in a Victor^3V microplate reader (Perkin-Elmer) using a 700 nm cut-off filter with a 1 sec read time. EC50 values were calculated from dose response curves from the resulting best-fit equations determined by Microsoft Excel and XLfit 4.1 software.

Test [2] has as its system HCV genotype 1a H77 strain subgenomic luciferase replicon. As to the kind of experiment: HCV replicon assay, genotype 1a. The following applies: for IC50: Hepatitis C virus, read-out: 1a IC50 (nM), HCV genotype 1a. Here is the method:
(§1) The HCV luciferase replicon assay measures the ability of a test compound to inhibit HCV replication in cell culture after 3 days of treatment in a human hepatoma cell line (Huh-7) bearing an HCV replicon containing a luciferase-neomycin phosphotransferase fusion gene. The inhibition of HCV replication was measured by quantification of luciferase protein expression. Briefly, Huh-7 cells containing either the HCV genotype 1a H77 strain or genotype 1b Con1 strain subgenomic luciferase replicon (H1a-luc or Zluc, respectively) were grown in DMEM containing glucose, L-glutamine and sodium pyruvate, 10% fetal bovine serum (FBS), 100 IU/mL penicillin, 100 μg/mL streptomycin, 2 mM GlutaMAX, non-essential amino acids and 0.25 (H1a-luc) or 0.5 (Zluc) mg/mL G418. GlutaMAX was obtained from Invitrogen, Corp.; all other media reagents were obtained from Mediatech, Inc. For dose-response testing, the cells were seeded in 96-well plates at 1×10^4 (H1a-luc) or 7.5×10^3 (Zluc) cells/well in a volume of 50 μL, and incubated at 37° C./5% CO2. Three hours after plating, 50 μL of ten 5-fold serial dilutions of compound were added, and cell cultures were incubated at 37° C./5% CO2 for 72 hours. In all cases, Huh-7 cells lacking the HCV replicon served as negative control. To assess luciferase expression, the media/compound was removed from the plates and ONE-glo Luciferase assay reagent (Promega) was added to each well. The assay plates were shaken for 3 minutes at room temperature and luciferase activity for each well was measured with a 1 sec read time on the Victor^3V multilabel counter using a 700 nm cut-off filter (Perkin Elmer). EC50 values were calculated from dose response curves from the resulting best-fit equations determined by Microsoft Excel and XLfit 4.1 software.
On the technique in general: Replicon systems follow genome replication, usually without infectious particles.

Test [3] deals with HCV genotype 1b Con1 strain subgenomic luciferase replicon. Put plainly: HCV replicon assay, genotype 1b. The following applies: Hepatitis C virus. Here is the method:
as §1

The subject of test [4] is HCV 2b. Put plainly: HCV replicon assay, genotype 2b. The following applies: for pIC50: read-out: 2b IC50, HCV genotype 2b; for IC50: Hepatitis C virus, read-out: 2b IC50 (nM), HCV genotype 2b.
For test [5], the system named is HCV genotype 3a NS5A within the 1b-replicon. As to the kind of experiment: HCV replicon assay, genotype 3a (NS5A intergenotypic stable cell line). The following applies: for IC50: Hepatitis C virus, read-out: 3a IC50 (nM), HCV genotype 3a.
Description: The nucleotide sequences of the NS5A region of genotype 2a (GenBank Accession # AB047639), genotype 3a (GenBank Accession # D17763), and genotype 4a (GenBank Accession # DQ418788) were synthesized by an outside vendor. The NS5A region of each of these genotypes included the first 11 amino acids of the protease recognition sequence of genotype 1b, as well as the last 10 amino acids of genotype 1b. The NS5A gene cassettes were excised with site specific restriction endonucleases and ligated into a ZS11-luciferase genotype 1b backbone (backbone contains the genotype 1b NS3 protease, NS4a, NS4b, and NS5b coding regions) with similarly cut restriction enzyme sites. Thus, the newly constructed plasmid contains a genotype 2a-, 3a- or 4a-specific NS5A gene within the 1b-replicon.
These new intergenotypic plasmids were used to establish stable cell lines. RNA was generated from the NS5A intergenotypic plasmids and used in conjunction with a lipofectin reagent to transfect a cured Huh7 cell line. Transfected cells were selected for with G418. After selection has occurred the stable cell lines were propagated, tested for luciferase activity, and RT-PCR with genotype specific primers (either 1a, 2a, 3a, or 4a). Stable cell lines containing the intergenotypic replicon were then fully sequenced and analyzed for proper expression of NS3, NS5A and NS5B proteins.
Drug titration analysis was performed using the luciferase replicon assay described herein.
as §1

In general, IC50 refers to the midpoint of a concentration-inhibition curve. What is called pIC50 is the IC50 on a negative log10 scale, so that one unit is a factor of ten. `COC(=O)N[C@H](C(=O)N1CCC[C@H]1c1ncc(-c2ccc3c(c2)Oc2ccc4cc(-c5cnc([C@@H]6CCCN6C(=O)[C@@H](NC(=O)OC)C6CCOCC6)[nH]5)ccc4c2C3C)[nH]1)C1CCOCC1` (single isomer, unassigned) [Compound 11]: the IC50 in test [1] is 0.391 nM; in test [2], 0.0037 nM; in test [5] it was 0.038 nM. The values for the pIC50 in test [3] and in test [4] were 11.36 and 10.80, respectively.

Take `CCC1(CC)c2ccc(-c3cnc([C@@H]4CCCN4C(=O)[C@H](NC(=O)OC)C4CCOCC4)[nH]3)cc2Oc2cc3ccc(-c4cnc([C@@H]5CCCN5C(=O)[C@@H](NC(=O)OC)C5CCOCC5)[nH]4)cc3cc21` [Compound 17, methyl [(1R)-2-[(2S)-2-{5-[12,12-diethyl-9-(2-{(2S)-1-[(2S)-2-[(methoxycarbonyl)amino]-2-(tetrahydro-2H-pyran-4-yl)acetyl]pyrrolidin-2-yl}-1H-imidazol-5-yl)-12H-benzo[b]xanthen-3-yl]-1H-imidazol-2-yl}pyrrolidin-1-yl]-2-oxo-1-(tetrahydro-2H-pyran-4-yl)ethyl]carbamate]: the IC50 in test [1] is 0.046 nM; in test [2], 0.0034 nM; in test [4], 0.028 nM; in test [5] it was 0.055 nM. This compound had a pIC50 in test [3] of 10.52.

Regarding `COC(=O)N[C@H](C(=O)N1CCC[C@H]1c1ncc(-c2ccc3c(ccc4oc5cc(-c6cnc([C@@H]7CCCN7C(=O)[C@@H](NC(=O)OC)C(C)C)[nH]6)ccc5c(=O)c43)c2)[nH]1)C(C)C` [Compound 33, methyl [(1S)-1-({(2S)-2-[5-(9-{2-[(2S)-1-{(2S)-2-[(methoxycarbonyl)amino]-3-methylbutanoyl}pyrrolidin-2-yl]-1H-imidazol-5-yl}-12-oxo-12H-benzo[a]xanthen-3-yl)-1H-imidazol-2-yl]pyrrolidin-1-yl}carbonyl)-2-methylpropyl]carbamate], the IC50 in test [1] was 18.4 nM; in test [2] it was 0.003 nM; in test [4], 14.1 nM; in test [5] it was not below 1 nM. In test [3], this compound showed a pIC50 of 11.48.

Turning to `COC(=O)N[C@H](C(=O)N1C[C@H](F)C[C@H]1c1ncc(-c2ccc3c(ccc4oc5cc(-c6cnc([C@@H]7C[C@@H](F)CN7C(=O)[C@@H](NC(=O)OC)C(C)C)[nH]6)ccc5c(=O)c43)c2)[nH]1)C(C)C` [Compound 28, methyl [(1S)-1-({(2S,4R)-4-fluoro-2-[5-(9-{2-[(2S,4R)-4-fluoro-1-{(2S)-2-[(methoxycarbonyl)amino]-3-methylbutanoyl}pyrrolidin-2-yl]-1H-imidazol-5-yl}-12-oxo-12H-benzo[a]xanthen-3-yl)-1H-imidazol-2-yl]pyrrolidin-1-yl}carbonyl)-2-methylpropyl]carbamate], the IC50 in test [1] was 1.18 nM; in test [2], 0.0292 nM; in test [4], 89.8 nM; in test [5], not below 1 nM. Besides, in test [3], the pIC50 is 11.35.

With `CCC1(CC)c2ccc(-c3cnc([C@@H]4CCCN4C(=O)[C@H](NC(=O)OC)C(C)C)[nH]3)cc2Oc2cc3ccc(-c4cnc([C@@H]5CCCN5C(=O)[C@@H](NC(=O)OC)C(C)C)[nH]4)cc3cc21` [Compound 9, methyl [(1R)-1-({(2S)-2-[5-(12,12-diethyl-9-{2-[(2S)-1-{(2S)-2-[(methoxycarbonyl)amino]-3-methylbutanoyl}pyrrolidin-2-yl]-1H-imidazol-5-yl}-12H-benzo[b]xanthen-3-yl)-1H-imidazol-2-yl]pyrrolidin-1-yl}carbonyl)-2-methylpropyl]carbamate], the IC50 was found to be 3.28 nM in test [1], 0.002 nM in test [2], 4.53 nM in test [4] and 1.11 nM in test [5].

Take `CCC1c2ccc(-c3cnc([C@@H]4CCCN4C(=O)[C@@H](NC(=O)OC)C(C)C)[nH]3)cc2Oc2ccc3cc(-c4cnc([C@@H]5CCCN5C(=O)[C@@H](NC(=O)OC)C(C)C)[nH]4)ccc3c21` (single isomer, unassigned) [Compound 6]: the pIC50 in test [1] (read-out: 1aY93H IC50, HCV genotype 1a, Y93H mutant) was 7.82; in test [2] (read-out: 1a IC50, HCV genotype 1a) it was 11.57; in test [4] it was 7.89; in test [5] (read-out: 3a IC50, HCV genotype 3a), 8.76.

In the case of `COC(=O)N[C@H](C(=O)N1C[C@H](F)C[C@H]1c1ncc(-c2ccc3c(ccc4oc5cc(-c6cnc([C@@H]7C[C@@H](F)CN7C(=O)[C@@H](NC(=O)OC)C7CCOCC7)[nH]6)ccc5c(=O)c43)c2)[nH]1)C1CCOCC1` [Compound 32, dimethyl [(12-oxo-12H-benzo[a]xanthene-3,9-diyl)bis{1H-imidazole-5,2-diyl[(2S,4R)-4-fluoropyrrolidine-2,1-diyl][(1S)-2-oxo-1-(tetrahydro-2H-pyran-4-yl)ethane-2,1-diyl]}]biscarbamate], the IC50 in test [1] is 0.18 nM; in test [2], 0.0841 nM; in test [4], 3.47 nM; in test [5] it was 5.84 nM.

As to `CCC1(CC)c2ccc(-c3cnc([C@@H]4CCCN4C(=O)[C@H](NC(=O)OC)C(C)C)[nH]3)cc2Oc2ccc3cc(-c4cnc([C@@H]5CCCN5C(=O)[C@@H](NC(=O)OC)C(C)C)[nH]4)ccc3c21` [Compound 8, methyl [(1R)-1-({(2S)-2-[5-(12,12-diethyl-3-{2-[(2S)-1-{(2S)-2-[(methoxycarbonyl)amino]-3-methylbutanoyl}pyrrolidin-2-yl]-1H-imidazol-5-yl}-12H-benzo[a]xanthen-9-yl)-1H-imidazol-2-yl]pyrrolidin-1-yl}carbonyl)-2-methylpropyl]carbamate], the IC50 came out at 4.1 nM in test [1], 0.002 nM in test [2], 3.33 nM in test [4] and 0.581 nM in test [5].

With `CCN(CC)[C@@H](C(=O)N1C[C@H](F)C[C@H]1c1ncc(-c2ccc3c(ccc4oc5cc(-c6cnc([C@@H]7C[C@@H](F)CN7C(=O)[C@@H](c7ccccc7)N(CC)CC)[nH]6)ccc5c(=O)c43)c2)[nH]1)c1ccccc1` [Compound 31, 3,9-bis(2-{(2S,4R)-1-[(2R)-2-(diethylamino)-2-phenylacetyl]-4-fluoropyrrolidin-2-yl}-1H-imidazol-5-yl)-12H-benzo[a]xanthen-12-one], the IC50 in test [1] was 506 nM; in test [2] it was 0.31 nM; in test [4], 797 nM; in test [5] it was 0.0262 nM.

Consider `CCC1c2ccc(-c3cnc([C@@H]4CCCN4C(=O)[C@@H](NC(=O)OC)C(C)C)[nH]3)cc2Oc2ccc3cc(-c4cnc([C@@H]5CCCN5C(=O)[C@@H](NC(=O)OC)C(C)C)[nH]4)ccc3c21` (single isomer, unassigned) [Compound 5], for which the IC50 came to 11.7 nM in test [1], 0.005 nM in test [2] and 1.08 nM in test [5]. Also, the pIC50 in test [4] is 9.11.
